Values quoted from earlier work as cited in publication PMC9298070, “Lack of a Clinically Meaningful Drug Interaction Between the HIV‐1 Antiretroviral Agents Islatravir, Dolutegravir, and Tenofovir Disoproxil Fumarate” (Clinical Pharmacology in Drug Development, 2021).

Tested on: CYP1A2
Parameters: method as in PMID 34452431
Conditions: at concentrations up to 100 μM; cited from earlier work

C#C[C@]1(CO)O[C@@H](n2cnc3c(N)nc(F)nc32)C[C@@H]1O [Islatravir, 4′‐Ethynyl‐2‐fluoro‐2′‐deoxyadenosine]
inhibitory effect on CYP1A2: no inhibitory effect
